The text below walks through data of ChEMBL document CHEMBL1125960, “Synthesis and biological activity of fluorinated intermediates of the methionine salvage pathway” (Bioorg Med Chem Lett, 1991).

Assay [1] deals with Plasmodium falciparum. Description: Growth inhibition of Plasmodium falciparum FCB125. Format: functional, organism-based.
The subject of assay [2] is AIK-T4. Briefly: (§1) The compound was evaluated for toxicity against HIV infected T4 lymphocytes. Format: functional. As to conditions: Homo sapiens.
In assay [3] the test system is Plasmodium falciparum. Description: Growth inhibition of chloroquine-resistant Plasmodium falciparum. It counts as functional, organism-based.
Assay [4] concerns Plasmodium falciparum. Briefly: Growth inhibition of pyrimethamine-resistant Plasmodium falciparum. Format: functional, organism-based.
Assay [5] deals with NCI-H522. Description: The compound was evaluated for its ability to inhibit growth of non small cell lung cancer ([…] cell line). Format: functional. The conditions noted are these: Homo sapiens.
Assay [6] deals with AIK-T4. The description is as §1. It counts as functional, cell-based. The conditions noted are these: Homo sapiens.

The structures appear in SMILES notation.

Turning to `NC1=NCN=C2C1N=CN2C1O[C@H](CSC(F)(F)F)[C@@H](O)[C@H]1O` (some centres undefined), the IC50 in assay [1] worked out at 0.018 µM. The molecule further had a concentration for 50% growth inhibition (GI50) in assay [2] of 0.117 µM.

Take `OC1O[C@H](CSC(F)F)[C@@H](O)[C@H]1O` (some centres undefined): in assay [1], the IC50 was over 100 µM.

Molecule `NC1=NCN=C2C1N=CN2C1O[C@H](CSCCF)[C@@H](O)[C@H]1O` (some centres undefined) had an IC50 in assay [1] of 0.043 µM.

`NC1=NCN=C2C1N=CN2C1O[C@H](CSCC(F)F)[C@@H](O)[C@H]1O` (some centres undefined) showed an IC50 in assay [1] of 0.025 µM.

Consider `OC1OC(CSC(F)(F)F)C(O)C1O` (centres undefined), for which the IC50 in assay [1] was over 100 µM; in assay [3], over 100 µM; in assay [4], 50 µM.

In turn, `NC1=NCN=C2C1N=CN2C1O[C@H](CSC(F)F)[C@@H](O)[C@H]1O` (some centres undefined) registered a GI50 in assay [5] of 86 µM. Besides, the figures for the IC50 in assay [1] and in assay [6] were 35 µM and 222 µM, respectively.

Turning to `NC1=NCN=C2C1N=CN2C1O[C@H](CSCC(F)(F)F)[C@@H](O)[C@H]1O` (some centres undefined), in assay [5], the GI50 worked out at 45 µM. Further, the IC50 in assay [1] is 0.085 µM; in assay [6], 0.245 µM.
